US20190316085A1, “Methods Of T-Lymphocyte Expansion” (Cambridge Enterprise Limited, priority 2015, published 2019)

Assays:
[1] = tested on: OT-I CD8^+CD45.1^+ T-lymphocytes; assay: In vivo memory recall experiment (adoptive transfer, vaccination); parameters: species or system mouse; settings: for formation of memory cells after in vitro treatment of CD8+ T-cells: 0.5 mM, 7 days with IL-2 (FIGS. 13, 16, 17); for in vivo recall in response to vaccination: cells pre-treated 7 days with 0.5 mM, 37 days after adoptive transfer
Procedure: FIGS. 13B and 13C show representative flow cytometry plots of (B) CD8^+CD45.1^+ (C) or Kb/SIINFEKL Pentamer^+CD45.1^+ T-lymphocytes, in the spleens of vaccinated litter mate CD45.2 mice, 37 days after adoptive transfer of SIINFEKL-activated OT-I CD8^+CD45.1^+ T-lymphocytes, expanded with 0.5 mM S-2HG-octyl ester, 0.5 mM R-2HG-octyl ester or vehicle in the presence of IL-2 for 7 days. FIGS. 13D-F show (13D) the number of recovered CD45.1^+CD8^+ T-lymphocytes per spleen and (13E) % CD45.1^+ cells of the total CD8^+ population in each spleen or (13F) number of recovered Kb/SIINFEKL Pentamer^+CD45.1^+ T-lymphocytes per spleen 7 days after vaccination (37 days after the CD8+ T-cells were transferred into the mice). n=6 mice per group and error bars denote the s.e.m.
Total splenocytes from OT-1 CD45.1^+ mice were activated with 1000 nM SIINFEKL peptide in the presence of IL-2 and vehicle, 0.5 mM S-2HG-octyl ester or 0.5 mM R-2HG-octyl ester for 7 days. 1 million CD45^+CD8^+ cells were then injected intravenously into C57/B6 wild type CD45.2^+ host mice. 30 days later, host mice were vaccinated i.p. with SIINFEKL-loaded dendritic cells. 7 days later, spleens were harvested from host mice and the presence of CD45.1^+CD8^+ and Kb/SIINFEKL Pentamer+cells was determined by flow cytometry. Absolute numbers of cells were determined with the use of counting beads (CountBright, Life Technologies). Dendritic cells were prepared from bone marrow extracted from wild type C57/B6 mice. Bone marrow derived cells were cultured in non-TC treated petri dishes in RPMI-1640 medium containing 2 mM glutamine, 10% FBS, 25 mM HEPES, pH 7.2, 1% penicillin-streptomycin, 55 μM […] supplemented 20 ng/ml mGM-CSF (R&D Systems). After 8 days of culture, dendritic cells were activated with 1 μg/ml LPS (Sigma) for 24 h. The maturation of dendritic cells was confirmed by flow cytometry using the following markers: MHC class II-APC, CD11b-AF488, CD11c-AF488 and CD86-PE/Cy7 (Biolegend). Mature dendritic cells were then loaded with 2 μM SIINFEKL peptide at 37° C. for 1 hour. After peptide loading, dendritic cells were detached with 3 mM EDTA in PBS for 5-10 min at 37° C. and washed with PBS. For vaccination, 1 million peptide-loaded dendritic cells were injected i.p. per mouse in 100 μl PBS.

human CD8^+ T cells = assay: Experiments with human CD8+ T cells (CCR7, CD45RO flow cytometry); format: cell-based; settings: 14 days; 600 μM S-2HG-octyl ester or 800 μM R-2HG-octyl ester versus vehicle
Procedure: Numbers in dot plots represent the percentage of cells present in the corresponding quadrant defined by CCR7 and CD45RO expression.
Human CD8^+ T cells were magnetically isolated from blood of healthy donors after gradient centrifugation. Incubation with microbeads conjugated to anti-human CD8 antibodies (Miltenyi 130-097-057) was followed by magnetic bead isolation on a MACS column. Purified human CD8^+ T cells were activated with αCD3 and αCD28 coated beads (Dynabeads, 111.61D) and expanded in the presence of recombinant human IL-2 (30 Ul/mL, Roche 11011456001).
Cells were stained and acquired on a Fortessa (BD Biosciences). The following fluorophores and fluorophore-conjugated antibodies were used: anti-CD62L (Biolegend, MEL-14), anti-CD44 (Biolegend, IM7), anti-CD8a (Biolegend, 53-6.7), anti-CD45.1 (Biolegend, A20), anti-CD45.2 (Biolegend, 104), anti-CD127 (Biolegend, A7R34), anti-KLRG1 (Biolegend, 2F1/KLRG1), anti-CD19 (Biolegend, 6D5), anti-Bcl-2 (Biolegend, BCL/10C4), Eomes (eBioscience, Danlimag), PD-1 (Biolegend, 29F.1A12), […], H-2Kb/SIINFEKL Pentamer-PE (Proimmune, F093-2A), CFSE (Life Technologies), LIVE/DEAD Violet (Life Technologies), PI-AnnexinV (Biolegend, 640928), anti-Bcl-xl-PE (Cell Signalling Technologies, 54H6). For staining of nuclear-located marker Eomes, the Transcription Factor Staining Buffer Set (eBioscience) was used, according to the manufacturer's instructions. For staining of intracellular cytokines, OT-I cells were re-stimulated with SIINFEKL peptide for 4 h with GolgiStop solution (BD). For ^1H-NMR experiments, CD8^+ T-lymphocytes were sorted from total splenocytes by immunostaining with anti-mouse CD8-AF647 (Biolegend) on a MoFlo (Beckman Coulter). Cells were then activated and cultured as described above. For staining of human T cells, CD8^+ T cells were incubated at 37 C for 30 minutes in the presence of anti-CCR7 antibody (eBioscience 12-1979-41), followed by staining with anti-CD45RO antibody (Biolegend, UCHL1).
For experiments with human CD8^+ T cells, cells were magnetically isolated, activated and plated at a concentration of 1×10^6 cells per mL in the presence of 30 UI/mL of recombinant human IL-2. […] On day 14, the surface expression of CCR7 and CD45RO on alive CD8^+ cells was measured by flow cytometry.

HIF-2a = assay: Immunoblot on nuclear extracts for HIF-2a in treated CD8+ T-lymphocytes; format: cell-based, mouse; settings: 0.5 mM, 1 day or 7 days of treatment
Procedure: The arrow indicates HIF-2a protein.
Nuclear and cytosolic fractions were prepared from cells with the NE-PER kit (Thermo Scientific) and separated by SDS-PAGE. Proteins were transferred to PVDF membranes and then blocked in 5% milk prepared in phosphate-buffered saline (PBS) plus 0.05% Tween 20. Membranes were then incubated with primary antibodies overnight at 4° C. and horseradish peroxidase (HRP)-conjugated secondary antibodies for 1 h the next day. The following primary antibodies were used at a dilution of 1:1000: HIF1α (Novus), HIF2α (Novus), PDH-E1α (Abcam), PDH-E1α pS232 (Calbiochem), LaminB1 (Abcam), HDAC1 (Abcam), β-tubulin (Abcam), 4E-BP1 (Cell Signalling), phospho-4E-BP1 (S65) (Cell Signalling), phospho-4E-BP1 (T37/T46) (Cell Signalling) S6K (Cell Signalling), phopho-S6K (T389) (Cell Signalling), phopho-S6K (S371) (Cell Signalling).

Row | SMILES | formation of memory cells after in vitro treatment of CD8+ T-cells [1] | in vivo recall in response to vaccination [1] | expression of CCR7 (human CD8^+ T cells) | expression of CD45RO (human CD8^+ T cells) | abundance of HIF-2a protein (HIF-2a)
1 | CCCCCCCCOC(=O)[C@H](O)CCC(=O)O [R-2HG-octyl ester] | induces the formation | enhanced in vivo recall | induced the expression | induced the expression | increase in the abundance
2 | CCCCCCCCOC(=O)[C@@H](O)CCC(=O)O [S-2HG-octyl ester, S-2HG octyl ester] | induces the formation | enhanced in vivo recall | induced the expression | induced the expression | increase in the abundance
